Data as given in PubChem BioAssay (NCI).
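A five-concentration, 48-hour dose response in 96-well plates underlies each endpoint, interpolated linearly between surrounding concentrations. At the GI50, growth is halved. TGI: concentration producing complete growth inhibition.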

Assays:
Test in all cases: NCI-60 cell line screen, 48 h
SK-MEL-28 melanoma = system: SK-MEL-28 melanoma
A549 NSCLC = system: A549 NSCLC
OVCAR-3 ovarian = system: OVCAR-3 ovarian
EKVX NSCLC = system: EKVX NSCLC
A498 renal = system: A498 renal
NCI-H460 lung = system: NCI-H460 lung
COLO 205 colon = system: COLO 205 colon
OVCAR-8 ovarian = system: OVCAR-8 ovarian
CCRF-CEM leukemia = system: CCRF-CEM leukemia
MCF7 breast = system: MCF7 breast

SMILES	TGI (SK-MEL-28 melanoma) [µM]	TGI (A549 NSCLC) [µM]	TGI (OVCAR-3 ovarian) [µM]	TGI (EKVX NSCLC) [µM]	TGI (A498 renal) [µM]	TGI (NCI-H460 lung) [µM]	TGI (COLO 205 colon) [µM]	TGI (OVCAR-8 ovarian) [µM]	GI50 (SK-MEL-28 melanoma) [µM]	GI50 (A549 NSCLC) [µM]	GI50 (OVCAR-3 ovarian) [µM]	GI50 (EKVX NSCLC) [µM]	GI50 (A498 renal) [µM]	GI50 (NCI-H460 lung) [µM]	GI50 (COLO 205 colon) [µM]	GI50 (OVCAR-8 ovarian) [µM]	GI50 (CCRF-CEM leukemia) [µM]	TGI (CCRF-CEM leukemia) [µM]	GI50 (MCF7 breast) [µM]	TGI (MCF7 breast) [µM]
COCCOCOC(C)(C)[C@H](CCO)O[Si](c1ccccc1)(c1ccccc1)C(C)(C)C	29.7	22.1	22.2	29.5	31.6	22.3	33.9	23.5												
O=C1c2ccccc2C(=O)c2c1cc1c(c2[N+](=O)[O-])OCO1	26.6	21.9	4.77	9.8	2.38	7.06	16.8	10.3	3.52	4.94	1.43	2.92	0.0824	2.11	3.46	1.68	0.492	> 100	1	7.29
CC(C)=CC(=O)OC1C2C(C)=CC(O)C(O)C2(C)C2C3(O)OCC24C(CC(=O)OC14)C(C)C3O (configuration not stated)	0.199	9.68	0.171	0.642	4.07	0.337	2.77	0.82										0.624		0.107
OC1COC(OCc2ccccc2)C(O)C1O (configuration not stated)	> 100	> 100	> 100	> 100	> 100	> 100	> 100	> 100										> 100		> 100
CC(C)=CCC/C(C)=C/CCC1(C)C=Cc2c(c3ccccc3oc2=O)O1 (configuration not stated)	29.9	33.2	32.7	33.9	27.1	30.1	35.5	30.3										> 74		30.5
C/C(=N\NC(=S)Nc1ccc([N+](=O)[O-])cc1)c1nc2ncccc2[nH]1	3.2	19.1	17.7	3.2	8.76	3.31	23.1	1.71										12.4		2.38
Cc1cccc(CNc2ncnc3[nH]ncc23)c1	> 100	> 100	> 100	> 100	> 100	> 100	> 100	> 100										> 100		> 100
COc1cc(/C=C/C2=C(C#N)C(=O)OC2(C)C)ccc1O	> 100	> 100	> 100	> 100	> 100	> 100	> 100	> 100										33.1		
